From ChEMBL document CHEMBL1154016, “An efficient synthesis and biological study of novel indolyl-1,3,4-oxadiazoles as potent anticancer agents” (Bioorg Med Chem Lett, 2009) come the findings set out here.

Assay [1] relates to PC-3. Briefly: Cytotoxicity against human PC3 cells by MTT assay. Type of assay: functional, cell-based. A general note: Tetrazolium dyes change colour on reduction, which living cells bring about.
In assay [2] the test system is DU-145. Put plainly: Cytotoxicity against human DU145 cells by MTT assay. It is filed as functional, cell-based.
For assay [3], the system named is LNCaP. Put plainly: Cytotoxicity against human LNCAP cells by MTT assay. It is filed as functional, cell-based.
Assay [4] relates to MDA-MB-231. Put plainly: Cytotoxicity against human MDA-MB-231 cells by MTT assay. It is filed as functional, cell-based.
For assay [5], the system named is MCF7. Put plainly: Cytotoxicity against human MCF7 cells by MTT assay. It is filed as functional, cell-based.
For assay [6], the system named is MIA PaCa-2. Briefly: Cytotoxicity against human MIAPaCa2 cells by MTT assay. It is filed as functional, cell-based.
For assay [7], the system named is MCF7. Briefly: Selectivity ratio of IC50 for human MIAPaCa2 cells to IC50 for human MCF7 cells. It is filed as functional.

Each structure is given as a SMILES string.

On to `Clc1ccc(-c2nnc(-c3c[nH]c4ccccc34)o2)cc1`, for which the IC50 (as a rule, the concentration at which inhibition is half-maximal) in assay [1] is 41.6 µM; in assay [2] it was 192 µM; in assay [3], 583 µM; in assay [4] it was more than 1000 µM; in assay [5], 48.2 µM; in assay [6], 6460 µM.
Regarding `COc1cc(-c2nnc(-c3c[nH]c4ccccc34)o2)ccc1OCc1ccccc1`, the IC50 in assay [1], in assay [2], in assay [3], in assay [4], in assay [5] and in assay [6] was more than 1000 µM each time.
For the molecule `c1ccc(-c2nnc(-c3c[nH]c4ccccc34)o2)cc1`, the IC50 in assay [1] was more than 1000 µM; in assay [2], more than 1000 µM; in assay [3] it was more than 1000 µM; in assay [4], more than 1000 µM; in assay [5] it was 388 µM; in assay [6] it was more than 1000 µM.
As to `COc1ccc(-c2nnc(-c3c[nH]c4ccccc34)o2)cc1`, the concentration for half-maximal inhibition (IC50) in assay [1], in assay [2], in assay [3], in assay [4], in assay [5] and in assay [6] was more than 1000 µM in each case.
For the molecule `COc1cc(-c2nnc(-c3c[nH]c4ccccc34)o2)ccc1O`, the IC50 in assay [1], in assay [2], in assay [3], in assay [4], in assay [5] and in assay [6] was more than 1000 µM throughout.
For the molecule `c1ccc2c(-c3nnc(-c4ccncc4)o3)c[nH]c2c1`, the IC50 in assay [1] is 4.1 µM; in assay [2], 20.4 µM; in assay [3], 10 µM; in assay [4], more than 1000 µM; in assay [5] it was 1 µM; in assay [6], 1.6 µM.
As for `Cc1nnc(-c2c[nH]c3ccccc23)o1`, the IC50 is more than 1000 µM in assay [1]; more than 1000 µM in assay [2]; more than 1000 µM in assay [3]; more than 1000 µM in assay [4]; 198 µM in assay [5]; 145 µM in assay [6].
Consider `COc1ccc(-c2nnc(-c3c[nH]c4ccccc34)o2)c(OC)c1OC`, for which the IC50 is more than 1000 µM in assay [1]; more than 1000 µM in assay [2]; more than 1000 µM in assay [3]; more than 1000 µM in assay [4]; 121 µM in assay [5]; more than 1000 µM in assay [6].
On to `FC(F)(F)c1nnc(-c2c[nH]c3ccccc23)o1`, for which the IC50 in assay [1], in assay [2], in assay [3], in assay [4], in assay [5] and in assay [6] was more than 1000 µM throughout.
With `c1cncc(-c2nnc(-c3c[nH]c4ccccc34)o2)c1`, the IC50 in assay [1] is 711 µM; in assay [2], 170 µM; in assay [3], 69.4 µM; in assay [4] it was more than 1000 µM; in assay [5], 5.4 µM; in assay [6] it was 0.9 µM.
As for `c1ccc(Cc2nnc(-c3c[nH]c4ccccc34)o2)cc1`, the IC50 is more than 1000 µM in assay [1]; more than 1000 µM in assay [2]; more than 1000 µM in assay [3]; more than 1000 µM in assay [4]; 39.2 µM in assay [5]; 934 µM in assay [6]. Besides, in assay [7], the “Ratio IC50” value came to 24.
Take `COc1ccc(-c2nnc(-c3c[nH]c4ccccc34)o2)cc1OC`: the IC50 in assay [1] is more than 1000 µM; in assay [2] it was more than 1000 µM; in assay [3] it was more than 1000 µM; in assay [4], more than 1000 µM; in assay [5] it was 557 µM; in assay [6] it was more than 1000 µM.
On to `COc1cc(-c2nnc(-c3cn(C)c4ccccc34)o2)ccc1OCc1ccccc1`, for which the IC50 was more than 1000 µM in assay [1]; more than 1000 µM in assay [2]; more than 1000 µM in assay [3]; more than 1000 µM in assay [4]; 35.2 µM in assay [5]; 1.4 µM in assay [6].
